Results published in ChEMBL document CHEMBL1201862, “PubChem BioAssay data set” (2004).
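Five concentrations, 48 hours, 96-well plates. GI50 is the concentration that inhibits growth by half.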 Activity calls are given as the source filed them. No stated cut-off is given here; in the data, active = GI50 up to about 1.1 µM and inactive = higher.

How the values were obtained:
Experiment in all cases: DTP human tumour cell line panel, 48 h
786-0 = test system: 786-0
A549 = test system: A549
BT-549 = test system: BT-549
CCRF-CEM = test system: CCRF-CEM
EKVX = test system: EKVX
HL-60 = test system: HL-60
IGROV-1 = test system: IGROV-1
K562 = test system: K562
MCF7 = test system: MCF7
MDA-MB-435 = test system: MDA-MB-435
MOLT-4 = test system: MOLT-4
OVCAR-3 = test system: OVCAR-3
OVCAR-5 = test system: OVCAR-5
SF-539 = test system: SF-539
SK-MEL-28 = test system: SK-MEL-28
SK-OV-3 = test system: SK-OV-3
SW-620 = test system: SW-620
TK-10 = test system: TK-10
UO-31 = test system: UO-31
MDA-N = test system: MDA-N

Measured: GI50

CCn1c(-c2c(Cl)cc(O)cc2Cl)cc2c(Cl)cc(O)cc21
inactive: 786-0 4.66 µM | A549 4.42 µM | BT-549 4.5 µM | CCRF-CEM 6.04 µM | EKVX 13.2 µM | HL-60 3.43 µM | IGROV-1 3.21 µM | K562 3.41 µM | MCF7 3.71 µM | MDA-MB-435 1.67 µM | MOLT-4 8.87 µM | OVCAR-3 6.08 µM | OVCAR-5 8.97 µM | SF-539 3.24 µM | SK-MEL-28 2.3 µM | SK-OV-3 7.36 µM | SW-620 5.69 µM | TK-10 13.1 µM | UO-31 7.83 µM

O=C1OCCC12CN(Cc1ccccc1)N=N2 (centres undefined)
inactive: 786-0 > 100 µM | A549 > 100 µM | K562 > 100 µM | MCF7 > 100 µM | MDA-MB-435 > 100 µM | MDA-N > 100 µM | MOLT-4 > 100 µM | OVCAR-3 > 100 µM | OVCAR-5 > 100 µM | SF-539 > 100 µM | SK-MEL-28 > 100 µM | SK-OV-3 > 100 µM | SW-620 > 100 µM | TK-10 > 100 µM | UO-31 > 100 µM

c1ccc(SC(CCCCOC2CCCCO2)Sc2ccccc2)cc1 (centres undefined)
inactive: 786-0 > 100 µM | A549 93.3 µM | CCRF-CEM 29.2 µM | EKVX > 100 µM | HL-60 20.4 µM | IGROV-1 82.8 µM | K562 52 µM | MOLT-4 23.3 µM | OVCAR-3 56.5 µM | OVCAR-5 > 100 µM | SF-539 > 100 µM | SK-MEL-28 64.3 µM | SK-OV-3 > 100 µM | SW-620 76.4 µM | TK-10 > 100 µM | UO-31 13.4 µM

O=C1c2ccccc2C2C1N2C(=O)C(F)(F)F (centres undefined)
inactive: 786-0 > 100 µM | A549 > 100 µM | CCRF-CEM 25.9 µM | EKVX > 100 µM | HL-60 24.7 µM | IGROV-1 > 100 µM | K562 44.2 µM | MOLT-4 > 100 µM | OVCAR-3 > 100 µM | OVCAR-5 > 100 µM | SF-539 > 100 µM | SK-MEL-28 > 100 µM | SK-OV-3 > 100 µM | SW-620 > 100 µM | TK-10 > 100 µM | UO-31 > 100 µM

COc1cc(OC)c2c(O)c(S(=O)(=O)c3ccc(C)cc3)c(=O)oc2c1
inactive: 786-0 > 100 µM | A549 > 100 µM | BT-549 > 100 µM | CCRF-CEM 78.2 µM | EKVX > 100 µM | HL-60 > 100 µM | IGROV-1 > 100 µM | K562 69.5 µM | MCF7 > 100 µM | MDA-MB-435 > 100 µM | MOLT-4 > 100 µM | OVCAR-3 > 100 µM | OVCAR-5 > 100 µM | SF-539 > 100 µM | SK-MEL-28 > 100 µM | SK-OV-3 > 100 µM | SW-620 > 100 µM | TK-10 > 100 µM | UO-31 > 100 µM

COC(=S)OC1CC(n2cnc3c(=O)[nH]cnc32)OC1CO[Si](C)(C)C(C)(C)C (centres undefined)
inactive: 786-0 > 100 µM | A549 > 100 µM | CCRF-CEM > 100 µM | EKVX > 100 µM | HL-60 > 100 µM | IGROV-1 > 100 µM | K562 > 100 µM | MCF7 > 100 µM | MDA-MB-435 > 100 µM | MDA-N > 100 µM | MOLT-4 > 100 µM | OVCAR-3 > 100 µM | OVCAR-5 > 100 µM | SF-539 > 100 µM | SK-MEL-28 > 100 µM | SK-OV-3 > 100 µM | SW-620 > 100 µM | TK-10 > 100 µM

O=C(NC(=O)c1cn(CCN2CCN(C(=O)NCCCCCCNC(=O)N3CCN(CCn4cc(C(=O)NC(=O)OCc5ccccc5)c(=O)[nH]c4=O)CC3)CC2)c(=O)[nH]c1=O)OCc1ccccc1
inactive: 786-0 > 100 µM | A549 > 100 µM | CCRF-CEM > 100 µM | EKVX > 100 µM | HL-60 > 100 µM | IGROV-1 > 100 µM | K562 > 100 µM | MOLT-4 > 100 µM | OVCAR-3 > 100 µM | OVCAR-5 > 100 µM | SF-539 > 100 µM | SK-MEL-28 > 100 µM | SK-OV-3 > 100 µM | SW-620 > 100 µM | TK-10 > 100 µM | UO-31 > 100 µM

CC(=O)O/N=C/c1ncccc1OC(C)=O
inactive: 786-0 > 100 µM | A549 > 100 µM | CCRF-CEM > 100 µM | EKVX > 100 µM | HL-60 > 100 µM | IGROV-1 > 100 µM | K562 > 100 µM | MOLT-4 > 100 µM | OVCAR-3 > 100 µM | OVCAR-5 > 100 µM | SF-539 > 100 µM | SK-MEL-28 > 100 µM | SK-OV-3 > 100 µM | SW-620 > 100 µM | TK-10 > 100 µM | UO-31 > 100 µM

C[C@H]1C[C@H]2[C@@H]3C(C)(C)O[C@]4(O)C(=O)[C@]5(O)[C@@H](C)CC[C@H]1[C@]25C(=O)[C@]34C
inactive: 786-0 75.5 µM | A549 41.6 µM | CCRF-CEM 36.6 µM | HL-60 29.4 µM | IGROV-1 64 µM | K562 25.5 µM | MCF7 41.3 µM | MDA-MB-435 32.8 µM | MDA-N 37.7 µM | MOLT-4 37.1 µM | OVCAR-3 27.4 µM | OVCAR-5 65.2 µM | SF-539 > 100 µM | SK-OV-3 82.4 µM | SW-620 79.6 µM | UO-31 51.6 µM

CNC(=O)NCCN1CC2CCC(CC2)C1
inactive: 786-0 > 10 µM | A549 > 10 µM | CCRF-CEM > 10 µM | EKVX > 10 µM | HL-60 > 10 µM | IGROV-1 > 10 µM | K562 > 10 µM | MCF7 > 10 µM | MDA-MB-435 > 10 µM | MDA-N > 10 µM | MOLT-4 > 10 µM | OVCAR-3 > 10 µM | SF-539 > 10 µM | SK-MEL-28 > 10 µM | SK-OV-3 > 10 µM | SW-620 > 10 µM | TK-10 > 10 µM | UO-31 > 10 µM

CN(C)CCCNC(=O)c1cc(NC(=O)c2cc(NC(=O)[C@H]3C[C@@H]3C(=O)Nc3cc(C(=O)Nc4cc(C(=O)NCCCN(C)C)n(C)c4)n(C)c3)cn2C)cn1C
inactive: 786-0 > 100 µM | A549 > 100 µM | BT-549 > 100 µM | CCRF-CEM > 100 µM | EKVX > 100 µM | HL-60 > 100 µM | IGROV-1 > 100 µM | K562 > 100 µM | MCF7 > 100 µM | MDA-MB-435 > 100 µM | MOLT-4 > 100 µM | OVCAR-5 > 100 µM | SF-539 > 100 µM | SW-620 > 100 µM | TK-10 > 10 µM

C1=CC=C2NCCC/N=C3/C=CC=CC=C3NCCC/N=C\2C=C1
inactive: 786-0 > 100 µM | A549 > 100 µM | CCRF-CEM > 100 µM | EKVX > 100 µM | HL-60 > 100 µM | IGROV-1 > 100 µM | K562 > 100 µM | MOLT-4 > 100 µM | OVCAR-3 > 100 µM | OVCAR-5 > 100 µM | SF-539 > 100 µM | SK-MEL-28 > 100 µM | SK-OV-3 > 100 µM | SW-620 > 100 µM | TK-10 > 100 µM | UO-31 > 100 µM

Cn1c(=O)c2[nH]c(Nc3cccc(Cl)c3)nc2n(C)c1=O
inactive: 786-0 4.4 µM | A549 5.6 µM | CCRF-CEM 3.96 µM | EKVX 4.16 µM | HL-60 3.31 µM | IGROV-1 3.8 µM | K562 5.4 µM | MCF7 3.79 µM | MDA-MB-435 3.82 µM | MDA-N 4.21 µM | MOLT-4 3.13 µM | SK-MEL-28 5.42 µM | SK-OV-3 6.17 µM | SW-620 5.78 µM | TK-10 8.91 µM

COc1cc(/C=C2\[C@H]3c4c(c(OC)c(C)c(OC)c4OC)CC(C(=O)N2Cc2ccccc2)N3C)c(OC)c(C)c1OC
inactive: 786-0 18.1 µM | A549 > 100 µM | CCRF-CEM 19.1 µM | EKVX 26.1 µM | HL-60 15.7 µM | IGROV-1 21.8 µM | K562 27.6 µM | MOLT-4 19.7 µM | OVCAR-3 16.7 µM | OVCAR-5 20.6 µM | SF-539 19.3 µM | SK-MEL-28 25.4 µM | SK-OV-3 29.5 µM | SW-620 22.2 µM | TK-10 33.5 µM | UO-31 19.3 µM

CC1(C)CCC[C@]2(C)[C@H]3[C@H](C#N)c4cc(O)c(O)cc4O[C@@]3(C)CC[C@@H]12
inactive: 786-0 > 10 µM | CCRF-CEM > 10 µM | EKVX > 10 µM | HL-60 > 10 µM | IGROV-1 > 10 µM | K562 > 10 µM | MCF7 > 10 µM | MDA-N > 10 µM | MOLT-4 > 10 µM | OVCAR-3 > 10 µM | OVCAR-5 > 10 µM | SF-539 > 10 µM | SK-MEL-28 > 10 µM | SK-OV-3 > 10 µM | SW-620 > 10 µM | TK-10 > 10 µM | UO-31 5.87 µM

COC(=O)[C@@H]1C(=O)O[C@@H](c2ccc(OC)c(OC)c2OC)[C@@H]1C(=O)OC.COC(=O)[C@H]1C(=O)O[C@@H](c2ccc(OC)c(OC)c2OC)[C@@H]1C(=O)OC
inactive: 786-0 > 100 µM | A549 > 100 µM | CCRF-CEM > 100 µM | EKVX > 100 µM | HL-60 > 100 µM | IGROV-1 > 100 µM | K562 > 100 µM | MOLT-4 > 100 µM | OVCAR-3 > 100 µM | OVCAR-5 > 100 µM | SF-539 > 100 µM | SK-MEL-28 > 100 µM | SK-OV-3 > 100 µM | SW-620 > 100 µM | TK-10 > 100 µM | UO-31 > 100 µM
